Measured values from PMC10535219, “Discovery and Potential Utility of a Novel Non-Invasive Ocular Delivery Platform” (Pharmaceutics, 2023).
Where two headings read alike, the source gives them in different places.

Key:
[1] = Biodisposition of JV-DE1 and JV-MD2 delivered via NIODP (periorbital skin) in non-human primates; assay type: in vivo, cynomolgus monkeys; details: for Cmax / concentration at 24 h / concentration at 3 h / concentration at 6 h / concentration at 0.5 h: cynomolgus, cynomolgus monkey
Protocol: All experiments were performed at Medicilon. […] A pen brush was used to dose each formulation with three to four circular motions for even distribution. The doses of the test articles were selected based on their solubility/concentration with the maximum deliverable volume on the periorbital skin of the animals. The administered dose was calculated by the weight difference of the pen brush before and after administration. Animals were restrained from eye rubbing in restraint chairs for 2 h after dosing, with access to food and drink. A blood sample was collected from one of the study animals at pre-dosing. For every time point of 0.5, 3, 6, and 24 h post-dose, one animal was euthanized and the ocular tissues (upper eyelid, cornea, retina, and vitreous humor) of both eyes were collected. Plasma samples were collected before each euthanization.
For the convenience of tissue processing and sample extraction, only upper eyelids were collected to represent the entirety of the periorbital tissue. Ocular tissues were homogenized by adding a 9-fold volume of 50% methanol/H2O per gram of tissue. For the LC-MS/MS sample preparation, a 50 μL aliquot of plasma, aqueous humor, vitreous humor, or tissue homogenate was thoroughly mixed with a 250 μL extraction solution of CHCl3/EtOH (1:1); then, a 210 μL supernatant of the samples was transferred to a 96-well plate after centrifugation. The samples were evaporated in nitrogen gas (N2) until dried. Each sample was redissolved in 200 μL MeOH, of which 2 µL was injected for the LC-MS/MS analysis.
The LC system was the same as that described in Section 2. The MS analysis was performed using a Triple Quad 5500 with an ESI ion source, and the data acquisition and control system were Analyst 1.6.3 software from Applied Biosystems/MDS Sciex.
The LC/MS conditions for JV-DE1 are described in Supplementary Table S2. The LC conditions were as follows: ACQUITY UPLC ® BEH C18 1.7 μm, 2.1 mm × 50 mm; the mobile phase Column A, 0.1% formic acid in water; and Column B, 0.1% formic acid in acetonitrile. The flow rate was 0.6 ml/min, the column temperature was 50 °C, and the injection volume was 2 µL. The MS conditions were as follows: scan type, positive MRM; ion source, turbo spray; ionization model, ESI; nebulizer gas 1, 55 psi; gas 2, 55 psi; curtain gas, 40 psi; CAD, 10; ionspray voltage, 5500 V; and temperature, 550 °C.
The LC/MS conditions for JV-MD2 (DHA) are described in Supplementary Table S3. The LC conditions were as follows: ACQUITY UPLC® BEH C18 1.7 μm, 2.1 mm × 50 mm; the mobile phase Column A, […] NH4AC in H2O; and Column B, CAN. The flow rate was 0.5 mL/min, the column temperature was 40 °C, and the injection volume was 4 µL. The MS conditions were as follows: scan type, negative MRM; ion source, turbo spray; ionization model, ESI; nebulizer gas 1, 55 psi; gas 2, 55 psi; curtain gas, 40 psi; CAD, 9; ionspray voltage, 5500 V; and temperature, 550 °C.

human IP receptor = biological target: human IP receptor; parameters: method as in PMID 16331286; details: cited from earlier work
human PAF receptor = biological target: human PAF receptor; parameters: method as in PMID 16331286; details: cited from earlier work
[2] = JV-DE1, monkey, NIODP OD, 159.3 μg/eye, 24 h
[3] = JV-DE1, monkey, NIODP OD, 160.6 μg/eye, 3 h
[4] = JV-DE1, monkey, NIODP OD, 162.2 μg/eye, 6 h
[5] = JV-DE1, monkey, NIODP OD, 179.1 μg/eye, 0.5 h

CC(C)Oc1ccc(Cc2ccc(NC3=NCCN3)cc2)cc1 [JV-DE1, 4,5-dihydro-N-[4-[[4-(1-methylethoxy)phenyl]methyl]phenyl]-1H-imadazol-2-amine]
Drug in plasma ([1]; JV-DE1 0.53% w/w, monkey, NIODP periorbital skin OD, 159.3 μg/eye, 24 h, LLOQ 0.0001 µg/mL): BLQ
% Administered Dose, Cornea [1, 2]: 0.0326%
% Administered Dose, Eyelid/periorbital skin [1, 2]: 0.7501%
% Administered Dose, Retina [1, 2]: 0.0002%
% Administered Dose, Vitreous humor [1, 2]: 0.0018%
% Administered Dose, Cornea [1, 3]: 0.3430%
% Administered Dose, Eyelid/periorbital skin [1, 3]: 1.4956%
% Administered Dose, Retina [1, 3]: 0.0004%
% Administered Dose, Vitreous humor [1, 3]: 0.0029%
% Administered Dose, Cornea [1, 4]: 0.5900%
% Administered Dose, Eyelid/periorbital skin [1, 4]: 0.3477%
% Administered Dose, Retina [1, 4]: 0.0005%
% Administered Dose, Vitreous humor [1, 4]: 0.0031%
% Administered Dose, Cornea [1, 5]: 0.1921%
% Administered Dose, Eyelid/periorbital skin [1, 5]: 0.6370%
% Administered Dose, Retina [1, 5]: 0.0004%
% Administered Dose, Vitreous humor [1, 5]: 0.0047%
plasma concentrations ([1]; JV-DE1, monkey, NIODP about 165.3 µg/eye OD, all time points, LLOQ 0.0001 µg/mL): ≤ 0.3 ng/mL
maximum delivery efficiency in the retina ([1]; JV-DE1, monkey, via NIODP): 0.0005%
decrease of maximum retinal delivery efficiency, NIODP vs eye drop ([1]; JV-DE1, monkeys (NIODP) vs rabbits (eye drop), not head-to-head): about 10 fold
Cmax ([1]; cornea, topical or ocular, 165.3 ug, JV-DE1, monkey, NIODP about 165.3 µg/eye OD, read-out: Cmax in cornea): 9300 ng/g
concentration at 24 h ([1]; cornea, topical, JV-DE1, monkey, NIODP OD, 159.3 μg/eye, 24 h, read-out: Drug in OD Tissues, Cornea): 1620 ng/g
concentration at 3 h ([1]; cornea, topical, JV-DE1, monkey, NIODP OD, 160.6 μg/eye, 3 h, read-out: Drug in OD Tissues, Cornea): 16700 ng/g
concentration at 6 h ([1]; cornea, topical, JV-DE1, monkey, NIODP OD, 162.2 μg/eye, 6 h, read-out: Drug in OD Tissues, Cornea): 23900 ng/g
concentration at 0.5 h ([1]; cornea, topical, JV-DE1, monkey, NIODP OD, 179.1 μg/eye, 0.5 h, read-out: Drug in OD Tissues, Cornea): 9300 ng/g
concentration at 24 h ([1]; eyelid/periorbital skin (upper eyelid), topical, JV-DE1, monkey, NIODP OD, 159.3 μg/eye, 24 h, read-out: Drug in OD Tissues, Eyelid/periorbital skin): 11600 ng/g
concentration at 3 h ([1]; eyelid/periorbital skin (upper eyelid), topical, JV-DE1, monkey, NIODP OD, 160.6 μg/eye, 3 h, read-out: Drug in OD Tissues, Eyelid/periorbital skin): 32500 ng/g
concentration at 6 h ([1]; eyelid/periorbital skin (upper eyelid), topical, JV-DE1, monkey, NIODP OD, 162.2 μg/eye, 6 h, read-out: Drug in OD Tissues, Eyelid/periorbital skin): 7950 ng/g
concentration at 0.5 h ([1]; eyelid/periorbital skin (upper eyelid), topical, JV-DE1, monkey, NIODP OD, 179.1 μg/eye, 0.5 h, read-out: Drug in OD Tissues, Eyelid/periorbital skin): 26500 ng/g
Cmax ([1]; eyelid/periorbital skin, topical or ocular, 165.3 ug, JV-DE1, monkey, NIODP about 165.3 µg/eye OD, read-out: Cmax in eyelid/periorbital skin): 26500 ng/g
concentration at 3 h ([1]; plasma, topical, JV-DE1 0.53% w/w, monkey, NIODP periorbital skin OD, 160.6 μg/eye, 3 h, read-out: Drug in plasma): 0.2 ng/mL
concentration at 6 h ([1]; plasma, topical, JV-DE1 0.53% w/w, monkey, NIODP periorbital skin OD, 162.2 μg/eye, 6 h, read-out: Drug in plasma): 0.3 ng/mL
concentration at 0.5 h ([1]; plasma, topical, JV-DE1 0.53% w/w, monkey, NIODP periorbital skin OD, 179.1 μg/eye, 0.5 h, read-out: Drug in plasma): 0.1 ng/mL
Cmax ([1]; retina, topical or ocular, 165.3 ug, JV-DE1, monkey, NIODP about 165.3 µg/eye OD, read-out: Cmax in retina): 45.5 ng/g
Cmax ([1]; retina, topical, 165.3 µg per eye, JV-DE1, monkey, NIODP, read-out: retinal Cmax): 147 nM
concentration at 24 h ([1]; retina, topical, JV-DE1, monkey, NIODP OD, 159.3 μg/eye, 24 h, read-out: Drug in OD Tissues, Retina): 5.5 ng/g
concentration at 3 h ([1]; retina, topical, JV-DE1, monkey, NIODP OD, 160.6 μg/eye, 3 h, read-out: Drug in OD Tissues, Retina): 27.9 ng/g
concentration at 6 h ([1]; retina, topical, JV-DE1, monkey, NIODP OD, 162.2 μg/eye, 6 h, read-out: Drug in OD Tissues, Retina): 45.5 ng/g
concentration at 0.5 h ([1]; retina, topical, JV-DE1, monkey, NIODP OD, 179.1 μg/eye, 0.5 h, read-out: Drug in OD Tissues, Retina): 39.6 ng/g
Cmax ([1]; vitreous humor, topical or ocular, 165.3 ug, JV-DE1, monkey, NIODP about 165.3 µg/eye OD, read-out: Cmax in vitreous humor): 19 ng/mL
concentration at 24 h ([1]; vitreous humor, topical, JV-DE1, monkey, NIODP OD, 159.3 μg/eye, 24 h, read-out: Drug in OD Tissues, Vitreous humor): 19 ng/mL
concentration at 3 h ([1]; vitreous humor, topical, JV-DE1, monkey, NIODP OD, 160.6 μg/eye, 3 h, read-out: Drug in OD Tissues, Vitreous humor): 7.9 ng/mL
concentration at 6 h ([1]; vitreous humor, topical, JV-DE1, monkey, NIODP OD, 162.2 μg/eye, 6 h, read-out: Drug in OD Tissues, Vitreous humor): 3.9 ng/mL
concentration at 0.5 h ([1]; vitreous humor, topical, JV-DE1, monkey, NIODP OD, 179.1 μg/eye, 0.5 h, read-out: Drug in OD Tissues, Vitreous humor): 15.2 ng/mL
Ki (human IP receptor): 0.5 nM
pKi (human IP receptor): 9.3
pKi (human PAF receptor): 7.9
